The test system of data set [1] is Rattus norvegicus. Briefly: Antiinflammatory activity in complete freund's adjuvant-induced male Sprague-Dawley rat model of arthritis assessed as improved cartilage destruction at 80 mg/kg, IG after 4 weeks by H and E staining based histopathological analysis. The data set is classed as functional, organism-based.
In data set [2] the test system is Rattus norvegicus. Put plainly: Antiinflammatory activity in complete freund's adjuvant-induced IG dosed male Sprague-Dawley rat model of arthritis assessed as decrease in TNF-alpha level in serum after 4 weeks by ELISA. The data set is classed as functional, organism-based. The following applies: dose 40-80 mg/kg. (In general: An ELISA detects its analyte on a solid surface through an enzyme-linked reagent.)

Data set [3] is described as follows: Half life in Sprague-Dawley rat at 10 mg/kg, po measured after 0.25 to 24 hrs by LC-MS/MS analysis. The data set is classed as ADME, organism-based. The following applies: in vivo, time 0.25-24 hrs.
Data set [4] is described as follows: Subacute toxicity in rat assessed as heart damage at 100 to 500 mg/kg, IG administered every other day for 14 days and measured every 2 days by H and E staining. The data set is classed as organism-based. The following applies: in vivo, po, 336 h, dose 100-500 mg/kg, time 14 day.
For data set [5], the system named is Rattus norvegicus. Put plainly: Antiinflammatory activity in complete freund's adjuvant-induced male Sprague-Dawley rat model of arthritis assessed as reduction in synovial hyperplasia at 40 to 80 mg/kg, IG after 2 weeks by Safranin O staining based histopathological analysis. In kind it is functional, organism-based. The following applies: dose 40-80 mg/kg.

The subject of another data set is RAW264.7. Briefly: Inhibition of LPS-induced NO release in mouse RAW264.7 cells preincubated for 1 hrs followed by LPS stimulation and measured after 24 hrs by Griess reagent based assay. The data set is classed as functional, cell-based. A general note: The Griess reaction detects nitrite, a stable product of nitric oxide.
The nature of data set [6]: AUC (0 to infinity) in Sprague-Dawley rat at 10 mg/kg, po measured by LC-MS analysis. In kind it is ADME, organism-based. Also on record: time infinity, route oral, dose 10 mg/kg. The following applies: in vivo.
A further data set has as its target Cytochrome P450 2C19 (Homo sapiens, UniProt P33261). Briefly: Inhibition of CYP2C19 in human liver microsomes using Mephenytoin as substrate measured after 20 mins by LC-MS/MS analysis. In kind it is ADME.
Data set [7] is filed under the species Rattus norvegicus. Briefly: Antiinflammatory activity against freund's adjuvant-induced male Sprague-Dawley rat model of arthritis assessed as decrease INOS expression at 40 to 80, IG after 4 weeks measured by staining based immunohistochemical analysis. The following applies: dose 40-80 mg/kg. The data set is classed as functional, organism-based.
Data set [8] can be described thus: Subacute toxicity in rat assessed as clonic convulsions at 100 to 500 mg/kg, IG administered every other day for 14 days and measured every 2 days. In kind it is organism-based. The following applies: in vivo, po, 336 h, dose 100-500 mg/kg, time 14 day.
Data set [9] has as its system Rattus norvegicus. Briefly: Antiinflammatory activity in complete freund's adjuvant-induced IG dosed male Sprague-Dawley rat model of arthritis assessed as decrease in IL-1beta level in serum after 4 weeks by ELISA. The data set is classed as functional, organism-based. The following applies: dose 40-80 mg/kg.
Data set [10] is described as follows: Acute toxicity in rat assessed as mortality at 2000 mg/kg, IG administered as single dose. The following applies: in vivo, po. In kind it is organism-based.
Data set [11] is described as follows: Half life in Sprague-Dawley rat at 1 mg/kg, iv measured after 0.08 to 24 hrs by LC-MS/MS analysis. The data set is classed as ADME, organism-based. The following applies: in vivo, time 0.08-24 hrs.
For data set [12], the system named is Rattus norvegicus. Briefly: Antiinflammatory activity in complete freund's adjuvant-induced IG dosed male Sprague-Dawley rat model of arthritis assessed as decrease in IL-6 level in serum after 4 weeks by ELISA. The data set is classed as functional, organism-based. The following applies: dose 40-80 mg/kg.

The structures appear in SMILES notation. Active and inactive are the calls of the source. The calls are words filed in the database; no cut-off is given here.

Cytochrome P450 2C19, sequence (P33261 whole entry): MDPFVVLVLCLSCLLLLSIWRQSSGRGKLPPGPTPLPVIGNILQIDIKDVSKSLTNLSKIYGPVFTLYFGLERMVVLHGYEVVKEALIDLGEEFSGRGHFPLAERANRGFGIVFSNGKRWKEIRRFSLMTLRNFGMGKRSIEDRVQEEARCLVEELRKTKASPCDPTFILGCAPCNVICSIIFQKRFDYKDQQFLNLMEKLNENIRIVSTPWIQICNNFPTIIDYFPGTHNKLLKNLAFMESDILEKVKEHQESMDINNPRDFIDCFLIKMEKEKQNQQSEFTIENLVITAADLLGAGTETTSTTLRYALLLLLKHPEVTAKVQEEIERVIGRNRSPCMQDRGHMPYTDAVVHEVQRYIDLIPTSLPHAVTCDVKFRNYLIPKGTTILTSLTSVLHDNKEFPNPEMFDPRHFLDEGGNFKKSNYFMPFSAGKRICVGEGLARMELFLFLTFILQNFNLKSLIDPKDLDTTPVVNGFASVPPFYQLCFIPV

For orientation: half-life means how long it takes for the measured level to halve. Broadly, the IC50 is the concentration that gives 50% inhibition. Usually AUC stands for concentration integrated over time. Low values mean low exposure, high ones high exposure. Take `COc1cc(/C=C/c2nc(NCc3ccc(C)cc3)c3sccc3n2)cc(OC)c1OC`: the outcome in the data set on Rattus norvegicus [1], in the data set on Rattus norvegicus [5] and in the data set filed under Rattus norvegicus [7] was Active. Moreover, the Activity result with Rattus norvegicus [2] is “Dose-Dependent Effect”; in data set [4], “Non-Toxic”; in [8], “Non-Toxic”; in the data set with Rattus norvegicus [9], “Dose-Dependent Effect”; in data set [10], “Non-Toxic”; in the data set on Rattus norvegicus [12], “Dose-Dependent Effect”. For the same compound, the values for the half-life in data set [3] and in data set [11] were 4.91 h and 6.21 h, respectively. Also, the half-inhibitory concentration (IC50) was 1.86 µM in the data set on RAW264.7 and 7.76 µM at Cytochrome P450 2C19. In addition, the AUC in [6] came to 1152 ng·h/mL.

Values taken from ChEMBL document CHEMBL4813945, “Discovery and development of novel pyrimidine and pyrazolo/thieno-fused pyrimidine derivatives as potent and orally active inducible nitric oxide synthase dimerization inhibitor with efficacy for arthritis” (Eur J Med Chem, 2021).
